Key:
[1] = tested on: B. subtilis 168; assay: fitness (endpoint OD595 vs no drug) (fraction); higher = more growth
How it was run: (§1)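 Volumes were 30 µl per well, or 55 µl for S. pneumoniae, in 384-well plates inoculated at OD595 0.01. Media were TSB, LB Lennox or CY at 37 °C, and OD595 was read every 30 min for 14 h with first-reading background subtraction. Fitness is the ratio of optical density at stationary-phase entry to the robust mean of no-drug controls. That ratio is capped at 1.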

[2] = tested on: S. pneumoniae D39V; assay: as above
How it was run: as §1

[3] = tested on: S. aureus DSM 20231; assay: Bliss interaction score (quartile over a dose matrix) (fitness difference); higher = more antagonism (negative = synergy)
How it was run: (§2)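 Each plate was normalised to the robust mean of its own no-drug wells, using OD595 at entry into stationary phase, with values capped at 1. This normalised growth is the fitness value. The Bliss score is the difference between observed and product-expected fitness, with single-drug fitness inferred from the combination data and quartiles taken over technical, biological and donor/recipient replicates.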

[4] = tested on: B. subtilis 168; assay: as above
How it was run: as §2

[5] = tested on: S. pneumoniae D39V; assay: as above
How it was run: as §2

[6] = tested on: S. aureus Newman; assay: as above
How it was run: as §2
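Wherever Bliss interaction score (quartile over a dose matrix) is given: first quartile when negative (synergy) and third quartile when positive (antagonism).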

C[C@H]1c2cccc(O)c2C(=O)C2=C(O)[C@]3(O)C(=O)C(C(N)=O)=C(O)[C@@H](N(C)C)[C@@H]3[C@@H](O)[C@@H]21 [Doxycycline] + CN(C)C(=O)C(CCN1CCC(O)(c2ccc(Cl)cc2)CC1)(c1ccccc1)c1ccccc1 [Loperamide]
Conditions | fitness
[1], first compound 0.02 µg/mL, partner 25 µg/mL | 0.544
[1], first compound 0.02 µg/mL, partner 50 µg/mL | 0.0585
[1], first compound 0.02 µg/mL, partner 100 µg/mL | 0.0358
[1], first compound 0.04 µg/mL, partner 25 µg/mL | 0.0527
[1], first compound 0.04 µg/mL, partner 50 µg/mL | 0.0434
[1], first compound 0.04 µg/mL, partner 100 µg/mL | 0.0354
[1], first compound 0.08 µg/mL, partner 25 µg/mL | 0.0276
[1], first compound 0.08 µg/mL, partner 50 µg/mL | 0.0338
[1], first compound 0.08 µg/mL, partner 100 µg/mL | 0.0354
[2], first compound 0.0155 µg/mL, partner 17.14 µg/mL | 0.874
[2], first compound 0.0155 µg/mL, partner 20 µg/mL | ≥ 1
[2], first compound 0.0155 µg/mL, partner 34.28 µg/mL | 0.861
[2], first compound 0.0155 µg/mL, partner 40 µg/mL | ≥ 1
[2], first compound 0.0155 µg/mL, partner 80 µg/mL | ≥ 1
[2], first compound 0.031 µg/mL, partner 17.14 µg/mL | 0.939
[2], first compound 0.031 µg/mL, partner 34.28 µg/mL | 0.932
[2], first compound 0.062 µg/mL, partner 17.14 µg/mL | 0.864
[2], first compound 0.062 µg/mL, partner 34.28 µg/mL | 0.895

fitness, [2], one replicate
Conditions | first compound 0.003875 µg/mL | first compound 0.00775 µg/mL | first compound 0.0155 µg/mL | first compound 0.031 µg/mL | first compound 0.062 µg/mL
partner 20 µg/mL | ≥ 1 | ≥ 1 | – | 0.976 | 0.836
partner 40 µg/mL | ≥ 1 | ≥ 1 | – | 0.942 | 0.826
partner 68.57 µg/mL | – | – | 0.858 | 0.875 | 0.966
partner 80 µg/mL | ≥ 1 | ≥ 1 | – | 0.973 | 0.764

Conditions | Bliss interaction score
[3] | 0.107
[4] | -0.189
[5] | 0.193
[6] | 0.0172

C[C@H]1c2cccc(O)c2C(=O)C2=C(O)[C@]3(O)C(=O)C(C(N)=O)=C(O)[C@@H](N(C)C)[C@@H]3[C@@H](O)[C@@H]21 [Doxycycline] + CCC(C)C1C(=O)NC(=C)C(=O)NC(C(=O)NC(CSCC(C(=O)N1)NC(=O)/C(=C/C)/NC(=O)C(C(C)CC)N)C(=O)NC2C(SCC(NC(=O)CNC(=O)C3CCCN3C2=O)C(=O)NC(CCCCN)C(=O)NC4C(SCC(NC(=O)CNC(=O)C(NC(=O)C(NC(=O)C(NC(=O)CNC4=O)C)CC(C)C)CCSC)C(=O)NC(CC(=O)N)C(=O)NC(CCSC)C(=O)NC(CCCCN)C(=O)NC5C(SCC6C(=O)NC(C(=O)NC(CSC(C(C(=O)N6)NC(=O)C(NC5=O)C)C)C(=O)NC(CO)C(=O)NC(C(C)CC)C(=O)NC(CC7=CN=CN7)C(=O)NC(C(C)C)C(=O)NC(=C)C(=O)NC(CCCCN)C(=O)O)CC8=CN=CN8)C)C)C)CC(C)C [Nisin]
main component drawn
Conditions | fitness
[1], first compound 0.02 µg/mL, partner 0.5 µg/mL | 0.836
[1], first compound 0.02 µg/mL, partner 1 µg/mL | 0.809
[1], first compound 0.02 µg/mL, partner 2 µg/mL | 0.476
[1], first compound 0.04 µg/mL, partner 0.5 µg/mL | 0.755
[1], first compound 0.04 µg/mL, partner 1 µg/mL | 0.741
[1], first compound 0.04 µg/mL, partner 2 µg/mL | 0.403
[1], first compound 0.08 µg/mL, partner 0.5 µg/mL | 0.61
[1], first compound 0.08 µg/mL, partner 1 µg/mL | 0.541
[1], first compound 0.08 µg/mL, partner 2 µg/mL | 0.0887
[2], first compound 0.0155 µg/mL, partner 0.4275 µg/mL | 0.935
[2], first compound 0.0155 µg/mL, partner 0.855 µg/mL | 0.803
[2], first compound 0.0155 µg/mL, partner 1.6 µg/mL | 0.192
[2], first compound 0.0155 µg/mL, partner 1.71 µg/mL | 0.0645
[2], first compound 0.0155 µg/mL, partner 3.2 µg/mL | 0.017
[2], first compound 0.0155 µg/mL, partner 6.4 µg/mL | 0.0088
[2], first compound 0.031 µg/mL, partner 0.4275 µg/mL | 0.89
[2], first compound 0.031 µg/mL, partner 0.855 µg/mL | 0.596
[2], first compound 0.031 µg/mL, partner 1.71 µg/mL | 0.0413
[2], first compound 0.062 µg/mL, partner 0.4275 µg/mL | 0.846
[2], first compound 0.062 µg/mL, partner 1.71 µg/mL | 0.0711

fitness, one replicate, main component drawn
Conditions | partner 1.25 µg/mL | partner 1.6 µg/mL | partner 2.5 µg/mL | partner 3.2 µg/mL | partner 4 µg/mL | partner 5 µg/mL | partner 6.4 µg/mL | partner 8 µg/mL | partner 16 µg/mL
[1], first compound 0.02 µg/mL | 0.915 | 0.287 | 0.481 | 0.0387 | 0.0411 | 0.0601 | 0.0419 | 0.0354 | 0.0177
[1], first compound 0.04 µg/mL | 0.935 | 0.358 | 0.464 | 0.0224 | 0.137 | 0.0251 | 0.035 | 0.0271 | 0.024
[1], first compound 0.08 µg/mL | 0.594 | 0.0173 | 0.165 | 0.0251 | 0.0169 | 0.0318 | 0.0245 | 0.0228 | 0.0199
[2], first compound 0.003875 µg/mL | – | 0.0092 | – | 0 | – | – | 0.0176 | – | –
[2], first compound 0.00775 µg/mL | – | 0.0172 | – | 0 | – | – | 0.0097 | – | –
[2], first compound 0.031 µg/mL | – | 0.222 | – | 0.0345 | – | – | 0 | – | –
[2], first compound 0.062 µg/mL | – | 0.0897 | – | 0.0057 | – | – | 0.0088 | – | –

main component drawn
Conditions | Bliss interaction score
[3] | -0.0392
[4] | 0.0503
[5] | -0.161
[6] | 0.0561

O=C(O)c1cn(C2CC2)c2cc(N3CCNCC3)c(F)cc2c1=O [Ciprofloxacin] + C[C@H]1c2cccc(O)c2C(=O)C2=C(O)[C@]3(O)C(=O)C(C(N)=O)=C(O)[C@@H](N(C)C)[C@@H]3[C@@H](O)[C@@H]21 [Doxycycline]
fitness
Conditions | partner 0.0155 µg/mL | partner 0.02 µg/mL | partner 0.031 µg/mL | partner 0.04 µg/mL | partner 0.08 µg/mL
[1], first compound 0.0098 µg/mL | – | 0.879 | – | 0.813 | 0.677
[1], first compound 0.0195 µg/mL | – | 0.726 | – | 0.688 | 0.58
[2], first compound 0.125 µg/mL | 0.891 | – | 0.742 | – | –
[2], first compound 0.25 µg/mL | 0.892 | – | 0.703 | – | –

fitness, [2], one replicate
Conditions | first compound 0.125 µg/mL | first compound 0.25 µg/mL | first compound 0.5 µg/mL
partner 0.003875 µg/mL | ≥ 1 | 0.931 | 0.804
partner 0.00775 µg/mL | 0.967 | 0.913 | 0.825

Conditions | Bliss interaction score
[3] | 0.0661
[4] | 0.183
[5] | 0.0673
[6] | 0.0631

C[C@H]1c2cccc(O)c2C(=O)C2=C(O)[C@]3(O)C(=O)C(C(N)=O)=C(O)[C@@H](N(C)C)[C@@H]3[C@@H](O)[C@@H]21 [Doxycycline] + O=C(O[C@@H]1Cc2c(O)cc(O)cc2O[C@@H]1c1cc(O)c(O)c(O)c1)c1cc(O)c(O)c(O)c1 [EGCG]
Conditions | fitness
[1], first compound 0.02 µg/mL, partner 6.25 µg/mL | 0.901
[1], first compound 0.04 µg/mL, partner 6.25 µg/mL | 0.767
[1], first compound 0.08 µg/mL, partner 6.25 µg/mL | 0.53
[1], first compound 0.08 µg/mL, partner 12.5 µg/mL | 0.315
[1], first compound 0.08 µg/mL, partner 25 µg/mL | 0.0902
[2], first compound 0.0155 µg/mL, partner 12.5 µg/mL | 0.85
[2], first compound 0.0155 µg/mL, partner 25 µg/mL | 0.864
[2], first compound 0.0155 µg/mL, partner 50 µg/mL | 0.881
[2], first compound 0.031 µg/mL, partner 25 µg/mL | 0.755

fitness, [2], one replicate
Conditions | partner 12.5 µg/mL | partner 25 µg/mL | partner 50 µg/mL
first compound 0.003875 µg/mL | 0.954 | 0.985 | 0.995
first compound 0.00775 µg/mL | 0.919 | 0.966 | 0.964

Conditions | Bliss interaction score
[3] | 0.0387
[4] | 0.147
[5] | -0.0707
[6] | 0.088

C[C@@H]1O[C@@H]1P(=O)(O)O [Fosfomycin] + CN(C)C(=O)C(CCN1CCC(O)(c2ccc(Cl)cc2)CC1)(c1ccccc1)c1ccccc1 [Loperamide]
fitness
Conditions | first compound 1.25 µg/mL | first compound 1.562 µg/mL | first compound 2.5 µg/mL | first compound 3.124 µg/mL | first compound 5 µg/mL | first compound 6.248 µg/mL
[1], partner 25 µg/mL | – | 0.743 | – | 0.625 | – | 0.534
[1], partner 100 µg/mL | – | 0.0187 | – | 0.0366 | – | 0.011
[2], partner 17.14 µg/mL | 0.957 | – | 0.952 | – | 0.722 | –
[2], partner 20 µg/mL | ≥ 1 | – | 0.985 | – | 0.81 | –
[2], partner 34.28 µg/mL | 0.954 | – | 0.961 | – | 0.74 | –
[2], partner 40 µg/mL | ≥ 1 | – | ≥ 1 | – | 0.77 | –

[2], partner 68.57 µg/mL, one replicate
Conditions | fitness
first compound 1.25 µg/mL | 0.969
first compound 2.5 µg/mL | 0.515
first compound 5 µg/mL | 0.861

Conditions | Bliss interaction score
[3] | 0.116
[4] | 0.305
[5] | 0.0632
[6] | -0.0773
